{"source": "ChEMBL document CHEMBL4819020", "about": "“Discovery of [1,2,4]triazolo[1,5-a]pyrimidines derivatives as potential anticancer agents” (Eur J Med Chem, 2021)", "key": {"MGC-803 [1]": {"system": "MGC-803", "experiment": "Induction of cell cycle arrest in human MGC-803 cells assessed as increase in p27 expression at 0.75 to 3 uM measured after 24 hrs by western blot assay", "format": "functional, cell-based", "conditions": "dose 0.75-3 µM"}, "MGC-803 [2]": {"system": "MGC-803", "experiment": "Induction of apoptosis in human MGC-803 cells assessed as viable cells at 3 uM measured after 48 hrs by Annexin V-FITC/PI staining based flow cytometry method (reference value: 92.3 %)", "format": "functional", "conditions": "read-out: Activity"}, "MGC-803 [3]": {"system": "MGC-803", "experiment": "Induction of apoptosis in human MGC-803 cells assessed as increase in p53 expression at 0.75 to 3 uM measured after 48 hrs by western blot assay", "format": "functional, cell-based", "conditions": "dose 0.75-3 µM"}, "MGC-803 [4]": {"system": "MGC-803", "experiment": "Induction of apoptosis in human MGC-803 cells assessed as late apoptotic cells at 3 uM measured after 48 hrs by Annexin V-FITC/PI staining based flow cytometry method (reference value: 3.10 %)", "format": "functional"}, "MGC-803 [5]": {"system": "MGC-803", "experiment": "Inhibition of cell migration in human MGC-803 cells measured after 48 hrs by transwell assay", "format": "functional, cell-based", "conditions": "dose 0.25-1 µM"}, "MGC-803 [6]": {"system": "MGC-803", "experiment": "Induction of apoptosis in human MGC-803 cells assessed as late apoptotic cells at 0.75 uM measured after 48 hrs by Annexin V-FITC/PI staining based flow cytometry method (reference value: 3.10 %)", "format": "functional"}, "MGC-803 [7]": {"system": "MGC-803", "experiment": "Induction of apoptosis in human MGC-803 cells assessed as necrotic cells at 0.75 uM measured after 48 hrs by Annexin V-FITC/PI staining based flow cytometry method (reference value: 3.60 %)", "format": "functional"}, "MGC-803 [8]": {"system": "MGC-803", "experiment": "Induction of apoptosis in human MGC-803 cells assessed as increase in cleaved caspase 3/9 expression at 0.75 to 3 uM measured after 48 hrs by western blot assay", "format": "functional, cell-based", "conditions": "dose 0.75-3 µM"}, "MGC-803 [9]": {"system": "MGC-803", "experiment": "Inhibition of cell migration in human MGC-803 cells measured after 48 hrs by wound healing assay", "format": "functional, cell-based", "conditions": "dose 0.25-1 µM"}, "MGC-803 [10]": {"system": "MGC-803", "experiment": "Antiproliferative activity against human MGC-803 cells assessed as inhibition of cell proliferation measured after 72 hrs by MTT assay", "format": "functional, cell-based", "conditions": "MGC-803, 72 h"}, "GES1": {"system": "GES1", "experiment": "Antiproliferative activity against human GES1 cells assessed as inhibition of cell proliferation measured after 72 hrs by MTT assay", "format": "cell-based", "conditions": "GES1, 72 h"}, "MGC-803 [11]": {"system": "MGC-803", "experiment": "Cell cycle arrest in human MGC-803 cells assessed as accumulation of cells in G0/G1 phase at 1.5 uM measured after 24 hrs by PI staining based flow cytometry assay (reference value: 49.39%)", "format": "functional"}}, "data": [{"smiles": "Cc1cc(Nc2ccn(Cc3nc(C)c4ccccc4n3)n2)n2nc(SCc3ccc(Br)cc3)nc2n1", "values": [{"measurement": "Activity", "setting": "MGC-803 [1]", "value": "Dose-Dependent Effect"}, {"measurement": "viability at 3 µM", "setting": "MGC-803 [2]", "value": 28, "unit": "%"}, {"measurement": "Activity", "setting": "MGC-803 [3]", "value": "Dose-Dependent Effect"}, {"measurement": "Activity", "setting": "MGC-803 [4]", "value": 27.7, "unit": "%"}, {"measurement": "Activity", "setting": "MGC-803 [5]", "value": "Dose-Dependent Effect"}, {"measurement": "Activity", "setting": "MGC-803 [6]", "value": 5.23, "unit": "%"}, {"measurement": "Activity", "setting": "MGC-803 [7]", "value": 3.46, "unit": "%"}, {"measurement": "Activity", "setting": "MGC-803 [8]", "value": "Dose-Dependent Effect"}, {"measurement": "Activity", "setting": "MGC-803 [9]", "value": "Dose-Dependent Effect"}, {"measurement": "IC50", "setting": "MGC-803 [10]", "value": 0.96, "unit": "µM"}, {"measurement": "IC50", "setting": "GES1", "value": 36.8, "unit": "µM"}, {"measurement": "Activity", "setting": "MGC-803 [11]", "value": 57.78, "unit": "%"}]}]}
